Experiments:
[1] = Drug uptake in human HCT116 cell nuclear membrane at 1 uM after 12 hrs by confocal fluorescence microscopy; type: ADME, cell membranes; conditions: hct-116, 12 h
[2] = Drug uptake in human HCT116 cell lysosomes at 1 uM by using Lyso Tracker Red DND-99 staining; type: ADME, cell-based, Lysosome; conditions: hct-116, 1 µM
HCT-116 [3] = experiment: Cellular uptake in human HCT116 cells at 1 uM after 1 hr by confocal fluorescence microscopy; type: ADME, cell-based; conditions: hct-116, 1 h
[4] = Drug uptake in human HCT116 cell chromatin at 1 uM after 12 hrs by confocal fluorescence microscopy; type: ADME, cell-based; conditions: hct-116, 12 h
[5] = Drug uptake in human HCT116 cell subcellular region at 1 uM incubated for 3 hrs measured after 30 hrs of drug washout by confocal fluorescence microscopy; type: ADME, cell-based; conditions: hct-116, 3 h
[6] = Drug uptake in human HCT116 cell […] at 1 uM by using Lyso Tracker Red DND-99 staining; type: ADME, cell-based; conditions: hct-116, 1 µM
[7] = Drug uptake in human HCT116 cells cytosol at 1 uM after 12 hrs by confocal fluorescence microscopy; type: ADME, cell-based, HCT-116
HeLa = experiment: Cytotoxicity against human HeLa cells after 24 hrs by MTT assay; type: functional, cell-based
[8] = Cytotoxicity against mouse Neuro2a cells after 24 hrs by MTT assay; type: functional, cell-based; conditions: N2a
[9] = Drug uptake in human HCT116 mitochondria at 1 uM by using Mito Tracker Red 580 staining; type: ADME
HCT-116 [10] = experiment: Cytotoxicity against human HCT116 cells after 24 hrs by MTT assay; type: functional, cell-based; conditions: HCT-116, 24 h

- Drug uptake [1]: Active
- Drug uptake [2]: Not Active
- Drug uptake (HCT-116 [3]): Active
- Drug uptake [4]: Active
- Drug uptake [5]: Active
- Drug uptake [6]: Not Active
- Drug uptake [7]: Active
- Drug uptake [9]: Not Active
SMILES: CC(=O)c1ccc(OC2Cc3c(ccc(C(C)=O)c3O)O2)cc1O (stereo unspecified)
- IC50 (HeLa): 490 nM
- IC50 [8]: 81 nM
- IC50 (HCT-116 [10]): 220 nM
